The structures appear in SMILES notation. Values after ≈ are worked out from the molar mass of the structure shown.

Series [1] is described as follows: Apparent solubility determination in pH 6.8 phosphate buffer. The class given is physicochemical. The method, then:
Apparent solubility determination: an excessive amount of the pharmaceutical compositions was weighed and put into a container. Phosphate buffer solution with pH6.8 was added respectively. The volume of the phosphate buffer solution was about 2/3 of volume of the container. The container was then shaken in a shaking table at 37° C. for 3 h. The resulting solution was filtered with a 0.45 μm filter membrane, then the filtrate was collected, further diluted with an appropriate amount of methanol, mixed by vortex and analyzed by HPLC.
Wherein the HPLC analysis parameters are as follows: […]

Series [2] is described as follows: Dissolution determination (USP II method, pH 6.8 buffer + 0.2% Tween 80). The note with it: pH 6.8 buffer + 0.2% Tween 80, 100 rpm, 37.5° C. Format: physicochemical. The source says: Dissolution Determination:
Wherein pH6.8 represents the environment simulating the human intestinal tract (small intestine).
Analysis of dissolved sample: the solution obtained in the dissolution determination test was filtered with a 0.45 μm filter membrane, then the filtrate was collected, further diluted with an appropriate amount of methanol, mixed by vortex and analyzed by HPLC. The HPLC analysis method of the dissolved sample was the same as the HPLC analysis method mentioned above in the solubility determination.

The conditions of series [3]: cited from earlier work.
For series [4] the following is noted: cited from earlier work. The source holds these as a separate data set.
The conditions of series [5]: reported as 0.1˜<10 μg/ml; cited from earlier work.

As for `CC(=O)O[C@H]1C(=O)[C@@]2(C)[C@H]([C@H](OC(=O)c3ccccc3)[C@]3(O)C[C@H](OC(=O)[C@H](O)[C@@H](NC(=O)c4ccccc4)c4ccccc4)C(C)=C1C3(C)C)[C@]1(OC(C)=O)CO[C@@H]1C[C@@H]2O` [Bulk drug, 5β,20-epoxy-1,2α,4,7β,10β,13α-hexahydroxytaxane-11-ene-9-one-4,10-diacetate-2-benzoate-13[(2′R,3′S)—N-benzoyl-3-phenylisoserine ester]], the “Ratio of solubility (composition/bulk drug)” value in series [1] worked out at 1. Besides, the solubility at 3 h in series [1] (aqueous buffer, thermodynamic from solid, apparent solubility, 37° C., shaken 3 h) was 4 µg/mL (≈ 4.68 µM). The Dissolution % in series [2] (15 min) was found to be 13.1%; in series [2] (30 min), 14.5%; in series [2] (45 min), 14.6%; in series [2] (60 min), 14.8%; in series [2] (120 min) it was 14.1%. For the same molecule, the pKa in series [3] is recorded as 11.99. Moreover, the oral bioavailability result in series [4] was “about 2%”. Further, the solubility in water entry in series [5] is “lower than 10 μg/ml”.

By solubility is commonly meant the dissolved amount per volume that the medium holds. The term pKa denotes the pH at which an ionisable group is half protonated.

(Values after patent publication US10940135B2, “Paclitaxel pharmaceutical composition and pharmaceutical preparation thereof, preparation process and use thereof” (Sinotherapeutics Inc., priority 2016, dated 2021).)
